Reference: PMC4859512, “Polyamino-Isoprenic Derivatives Block Intrinsic Resistance of P. aeruginosa to Doxycycline and Chloramphenicol In Vitro” (PLoS ONE, 2016)
In brackets after ≈: the same amount, converted by molar mass. Residues, ends and D or L forms follow the SMILES beside them. *: point of attachment. βNA = c1ccc2cc(N*)ccc2c1

Tests used:
P. aeruginosa PA01 (wt) = test: Antibiotic susceptibility testing (broth micro-dilution MIC), strain PA01; assay type: cell-based, Pseudomonas aeruginosa; settings: for MIC of Amikacin in the presence of the compound / MIC of Ceftazidime in the presence of the compound / MIC of Ciprofloxacin in the presence of the compound / MIC of Ticarcillin in the presence of the compound: PA01
Description: (§1) Experiments were performed on the BAC-SCREEN platform of the UMR-MD1, with a Freedom EVO 150 liquid handling system (Tecan, Lyon, France).
(§2) The same experiment was performed using chloramphenicol (4 mg/L) in combination with 3 (10 μM final concentration). […] These experiments were performed to study the effect of our compounds on the natural resistance of P. aeruginosa. […] Experiments were performed with the ß-lactams ceftazidime and ticarcillin and ciprofloxacin and amikacin.

[1] = tested on: P. aeruginosa PT629 (Mex AB overproducer); test: Antibiotic susceptibility testing (broth micro-dilution MIC), strain PT629; assay type: cell-based, Pseudomonas aeruginosa; settings: for MIC of Amikacin in the presence of the compound / MIC of Ceftazidime in the presence of the compound / MIC of Ciprofloxacin in the presence of the compound / MIC of Ticarcillin in the presence of the compound: PT629
Description: as §1
(§3) We concluded that compound 3 was the best compound and suitable for a more detailed study. The same experiment was performed using chloramphenicol (4 mg/L) in combination with 3 (10 μM final concentration). Amongst the 20 clinical isolates, the growth of 15 (75%) was impaired, while 5 (25%) were resistant (data not shown). These experiments were performed to study the effect of our compounds on the natural resistance of P. aeruginosa. In addition, we were wondering if compound 3 could also increase susceptibility to other antibiotic families including ß-Lactams, fluoroquinolones and aminoglycosides, that are representative of the main classes of anti-pseudomonal agents. Experiments were performed with the ß-lactams ceftazidime and ticarcillin and ciprofloxacin and amikacin. […] . […] To better characterize compound 3, we first searched for the minimum concentration of compound that allowed killing of bacteria by doxycycline, and PAßN was used as the reference molecule.

[2] = tested on: P. aeruginosa PA01 ERY^R (Mex CD overproducer); test: microbe, parasite or virus in culture; assay type: cell-based, Pseudomonas aeruginosa; settings: for MIC of Amikacin in the presence of the compound / MIC of Ceftazidime in the presence of the compound / MIC of Ciprofloxacin in the presence of the compound / MIC of Ticarcillin in the presence of the compound: PA01 ERY R
Description: as §1, §2

[3] = tested on: P. aeruginosa PA0-7H (Mex EF overproducer); test: Antibiotic susceptibility testing (broth micro-dilution MIC), strain PA0-7H; assay type: cell-based, Pseudomonas aeruginosa; settings: for MIC of Amikacin in the presence of the compound / MIC of Ceftazidime in the presence of the compound / MIC of Ciprofloxacin in the presence of the compound / MIC of Ticarcillin in the presence of the compound: PA0-7H
Description: as §1, §3

[4] = tested on: P. aeruginosa CMZ091 (Mex XY overproducer); test: Antibiotic susceptibility testing (broth micro-dilution MIC), strain CMZ091; assay type: cell-based, Pseudomonas aeruginosa; settings: for MIC of Amikacin in the presence of the compound / MIC of Ceftazidime in the presence of the compound / MIC of Ciprofloxacin in the presence of the compound / MIC of Ticarcillin in the presence of the compound: CMZ091
Description: as §1, §3

P. aeruginosa PA01 [5] = test: Comparison of efficiency between compounds and PAßN (compound gradient with 2 mg/L doxycycline); assay type: cell-based, Pseudomonas aeruginosa; settings: PA01, doxycycline 2 mg/L, 18 h
Description: Serial dilutions of each compound (from 270 μM to 0.95 μM for PAßN and from 135 μM to 0.06 μM for 3) were prepared in microplates. Doxycycline (2 mg/L) was then added to each well before inoculation of bacteria (5x10^5 cfu/mL). Optical density (600 nm) was measured after 18 hours at 37°C. Only the relevant part of the graphs are shown. Experiments were performed in triplicate.
First, we performed a checkerboard assay to analyze the synergy between doxycycline and the polyamino-isoprenic compound and between doxycycline and PAβN. For both, compound 3 and PAβN we observed a synergistic inhibition of growth when combined with doxycycline with a FIC Index of 0.09 (S2 Table). […] PAßN is generally used at a concentration greater than 10 μM to inhibit the resistance of P. aeruginosa with respect to various antibiotics, and, to our knowledge, no data have been reported in the literature on its use in combination with doxycycline. The percentage of growth inhibition was monitored as a function of compound concentration, and the results are presented in Fig 3.

P. aeruginosa PA01 [6] = test: Checkerboard assay with doxycycline; assay type: cell-based, Pseudomonas aeruginosa; settings: PA01
Description: Serial two-fold dilutions of antimicrobial agents were mixed together in a microtiter plate. The range of concentration of each drug was twice the MIC, down to the eleventh serial two-fold dilutions below this amount. Doxycycline was serially diluted along the X-axis, and the polyamino-isoprenic compound or PAßN was diluted along the Y-axis as indicated. Each well was inoculated with a bacterial inoculum of 5 x 10^5 CFU/ml, and the plates were incubated at 37°C for 18 h under aerobic conditions. Each plate also contained a row and a column in which a serial dilution of polyamino-isoprenic compound or doxycycline, respectively, was present alone to determine the MIC. The FIC index was calculated as follows: FIC index = FIC A + FIC B, where FIC A is the MIC of drug A in the combination/MIC of drug A alone and FIC B is the MIC of drug B in the combination/MIC of drug B alone. The combination was considered synergistic when the FIC index is ≤0.5, and antagonistic when the FIC index is > 4 [26].

[7] = tested on: P. aeruginosa FB1 (Mex B deleted); test: Antibiotic susceptibility testing (broth micro-dilution MIC), strain FB1; assay type: cell-based; settings: Pseudomonas aeruginosa, read-out: Minimal Inhibitory Concentration
Description: as §1

[8] = doxycycline MIC in the combination 0.125 µg/ml
[9] = doxycycline MIC in the combination 0.25 µg/ml
[10] = doxycycline MIC in the combination 0.5 µg/ml
[11] = doxycycline MIC in the combination 1 µg/ml
[12] = doxycycline MIC in the combination 2 µg/ml
[13] = doxycycline MIC in the combination 4 µg/ml
[14] = doxycycline MIC in the combination 8 µg/ml
[15] = doxycycline MIC in the combination 16 µg/ml
[16] = Pseudomonas aeruginosa, read-out: Minimal Inhibitory Concentration

What does the source list for `NC(N)=NCCC[C@H](NC(=O)[C@@H](N)Cc1ccccc1)C(=O)Nc1ccc2ccccc2c1` [PAßN, Phenylalanine-Arginine Beta-Naphthylamide, reference compound] (H-Phe-Arg-βNA)?
MIC of Amikacin in the presence of the compound (P. aeruginosa PA01 (wt); compound 10µM): 16 µg/mL; MIC of Ceftazidime in the presence of the compound (P. aeruginosa PA01 (wt); compound 10µM): 2 µg/mL; MIC of Ciprofloxacin in the presence of the compound (P. aeruginosa PA01 (wt); compound 10µM): 0.125 µg/mL; MIC of Ticarcillin in the presence of the compound (P. aeruginosa PA01 (wt); compound 10µM): 32 µg/mL; MIC of Amikacin in the presence of the compound (P. aeruginosa PA01 (wt); compound 30µM): 16 µg/mL; MIC of Ceftazidime in the presence of the compound (P. aeruginosa PA01 (wt); compound 30µM): 1 µg/mL; MIC of Ciprofloxacin in the presence of the compound (P. aeruginosa PA01 (wt); compound 30µM): ≤ 0.06 µg/mL; MIC of Ticarcillin in the presence of the compound (P. aeruginosa PA01 (wt); compound 30µM): 32 µg/mL; MIC of Amikacin in the presence of the compound ([1]; compound 10µM): 4 µg/mL; MIC of Ceftazidime in the presence of the compound ([1]; compound 10µM): 8 µg/mL; MIC of Ciprofloxacin in the presence of the compound ([1]; compound 10µM): 0.5 µg/mL; MIC of Ticarcillin in the presence of the compound ([1]; compound 10µM): > 64 µg/mL; MIC of Amikacin in the presence of the compound ([1]; compound 30µM): 4 to 8 µg/mL; MIC of Ceftazidime in the presence of the compound ([1]; compound 30µM): 2 to 4 µg/mL; MIC of Ciprofloxacin in the presence of the compound ([1]; compound 30µM): 0.5 µg/mL; MIC of Ticarcillin in the presence of the compound ([1]; compound 30µM): > 64 µg/mL; MIC of Amikacin in the presence of the compound ([2]; compound 10µM): 2 µg/mL; MIC of Ceftazidime in the presence of the compound ([2]; compound 10µM): 2 µg/mL; MIC of Ciprofloxacin in the presence of the compound ([2]; compound 10µM): 0.125 µg/mL; MIC of Ticarcillin in the presence of the compound ([2]; compound 10µM): 32 µg/mL; MIC of Amikacin in the presence of the compound ([2]; compound 30µM): 2 µg/mL; MIC of Ceftazidime in the presence of the compound ([2]; compound 30µM): 2 µg/mL; MIC of Ciprofloxacin in the presence of the compound ([2]; compound 30µM): ≤ 0.06 µg/mL; MIC of Ticarcillin in the presence of the compound ([2]; compound 30µM): 32 µg/mL; MIC of Amikacin in the presence of the compound ([3]; compound 10µM): 4 µg/mL; MIC of Ceftazidime in the presence of the compound ([3]; compound 10µM): 1 µg/mL; MIC of Ciprofloxacin in the presence of the compound ([3]; compound 10µM): 4 µg/mL; MIC of Ticarcillin in the presence of the compound ([3]; compound 10µM): 8 µg/mL; MIC of Amikacin in the presence of the compound ([3]; compound 30µM): 4 µg/mL; MIC of Ceftazidime in the presence of the compound ([3]; compound 30µM): 1 µg/mL; MIC of Ciprofloxacin in the presence of the compound ([3]; compound 30µM): 4 µg/mL; MIC of Ticarcillin in the presence of the compound ([3]; compound 30µM): 8 µg/mL; MIC of Amikacin in the presence of the compound ([4]; compound 10µM): 64 µg/mL; MIC of Ceftazidime in the presence of the compound ([4]; compound 10µM): 2 µg/mL; MIC of Ciprofloxacin in the presence of the compound ([4]; compound 10µM): 0.5 µg/mL; MIC of Ticarcillin in the presence of the compound ([4]; compound 10µM): 16 to 32 µg/mL; MIC of Amikacin in the presence of the compound ([4]; compound 30µM): 32 to 64 µg/mL; MIC of Ceftazidime in the presence of the compound ([4]; compound 30µM): 2 µg/mL; MIC of Ciprofloxacin in the presence of the compound ([4]; compound 30µM): 0.25 µg/mL; MIC of Ticarcillin in the presence of the compound ([4]; compound 30µM): 16 to 32 µg/mL; concentration needed to inhibit growth in the presence of doxycycline (P. aeruginosa PA01 [5]): ≥ 15.6 mg/L; concentration needed to inhibit growth in the presence of doxycycline (P. aeruginosa PA01 [5]; graphically determined on Fig 3): ≥ 30 µM; Concentration of compound associated (P. aeruginosa PA01 [6]; [8]): 128 µM; Effect (P. aeruginosa PA01 [6]; [8]): Synergistic (synergistic when the FIC index is ≤0.5); FIC index (P. aeruginosa PA01 [6]; [8]): 0.13; Concentration of compound associated (P. aeruginosa PA01 [6]; [9]): 32 µM; Effect (P. aeruginosa PA01 [6]; [9]): Synergistic (synergistic when the FIC index is ≤0.5); FIC index (P. aeruginosa PA01 [6]; [9]): 0.04; Concentration of compound associated (P. aeruginosa PA01 [6]; [10]): 32 µM; Effect (P. aeruginosa PA01 [6]; [10]): Synergistic (synergistic when the FIC index is ≤0.5); FIC index (P. aeruginosa PA01 [6]; [10]): 0.05; Concentration of compound associated (P. aeruginosa PA01 [6]; [11]): 32 µM; Effect (P. aeruginosa PA01 [6]; [11]): Synergistic (synergistic when the FIC index is ≤0.5); FIC index (P. aeruginosa PA01 [6]; [11]): 0.06; Concentration of compound associated (P. aeruginosa PA01 [6]; [12]): 32 µM; Effect (P. aeruginosa PA01 [6]; [12]): Synergistic (synergistic when the FIC index is ≤0.5); FIC index (P. aeruginosa PA01 [6]; [12]): 0.09; Concentration of compound associated (P. aeruginosa PA01 [6]; [13]): 8 µM; Effect (P. aeruginosa PA01 [6]; [13]): Synergistic (synergistic when the FIC index is ≤0.5); FIC index (P. aeruginosa PA01 [6]; [13]): 0.13; Concentration of compound associated (P. aeruginosa PA01 [6]; [14]): 4 µM; Effect (P. aeruginosa PA01 [6]; [14]): Synergistic (synergistic when the FIC index is ≤0.5); Concentration of compound associated (P. aeruginosa PA01 [6]; [15]): 2 µM; Effect (P. aeruginosa PA01 [6]; [15]): Synergistic (synergistic when the FIC index is ≤0.5); FIC index (P. aeruginosa PA01 [6]; [15]): 0.5; FIC index (P. aeruginosa PA01 [6]; combination with doxycycline): 0.09

With `O=C(N[C@H](CO)[C@H](O)c1ccc([N+](=O)[O-])cc1)C(Cl)Cl` [chloramphenicol] as the compound, how does the MIC (P. aeruginosa PA01 (wt); [16]) read?
Its MIC is 256 µg/mL.

And the MIC [1, 16]?
Its MIC is 512 µg/mL.

What about the MIC [2, 16] of the same compound?
The MIC was 256 µg/mL.

What about the MIC [3, 16] of the same compound?
Its MIC is over 1020 µg/mL.

What about the MIC [4, 16] of the same compound?
The MIC was 256 µg/mL.

And the MIC [7]?
Its MIC is 8 µg/mL (≈ 24.8 µM).
